# Earlier results, collected in US20140230256A1, “HAND HELD DEVICE” (The Gillette Company, priority 2013, published 2014).
# Conditions: organism not stated
smiles,measurement,value
"CCCCCCCCn1sc(Cl)c(Cl)c1=O [4,5-dichloro-2-n-octyl-4-isothiazolin-3-one]",MIC,about 50 ppm
